Results as given in ChEMBL document CHEMBL1201862, “PubChem BioAssay data set” (2004).
Calls of active or inactive are those of the source.

What was measured:
Assay type in all cases: functional
[1] = molecular target: T1, Hexokinase HKDC1 (Homo sapiens, UniProt Q2TB90); test: inhibition of HKDC1 glucose phosphorylation – biochemical, W721R variant, dose response (AID 504729)
T1 sequence (Q2TB90 whole entry): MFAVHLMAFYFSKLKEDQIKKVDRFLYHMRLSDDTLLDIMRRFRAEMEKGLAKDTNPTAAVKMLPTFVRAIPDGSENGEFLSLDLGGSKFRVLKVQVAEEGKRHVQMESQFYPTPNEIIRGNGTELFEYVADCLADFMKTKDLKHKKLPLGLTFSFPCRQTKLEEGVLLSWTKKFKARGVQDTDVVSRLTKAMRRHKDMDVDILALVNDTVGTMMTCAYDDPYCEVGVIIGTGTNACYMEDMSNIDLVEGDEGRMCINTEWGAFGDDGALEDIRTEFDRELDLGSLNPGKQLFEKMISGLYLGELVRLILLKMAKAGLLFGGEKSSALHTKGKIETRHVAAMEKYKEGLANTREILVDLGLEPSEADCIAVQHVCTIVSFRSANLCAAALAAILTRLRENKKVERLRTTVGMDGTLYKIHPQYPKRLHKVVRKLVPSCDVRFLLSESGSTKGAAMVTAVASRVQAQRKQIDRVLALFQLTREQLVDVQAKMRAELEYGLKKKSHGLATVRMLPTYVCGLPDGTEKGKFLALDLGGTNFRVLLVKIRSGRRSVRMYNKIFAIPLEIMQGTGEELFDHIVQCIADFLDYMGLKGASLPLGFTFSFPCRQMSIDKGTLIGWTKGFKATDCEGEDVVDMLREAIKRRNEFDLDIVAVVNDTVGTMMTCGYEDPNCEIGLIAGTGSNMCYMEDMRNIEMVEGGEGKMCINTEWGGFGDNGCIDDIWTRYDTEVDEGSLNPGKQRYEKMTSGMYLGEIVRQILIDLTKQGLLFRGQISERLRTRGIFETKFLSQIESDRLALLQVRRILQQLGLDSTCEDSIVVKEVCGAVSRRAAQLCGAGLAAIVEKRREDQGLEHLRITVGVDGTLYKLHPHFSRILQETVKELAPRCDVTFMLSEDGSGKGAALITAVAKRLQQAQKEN

[2] = molecular target: Induced myeloid leukemia cell differentiation protein Mcl-1 (Homo sapiens, UniProt Q07820)
Chain of Induced myeloid leukemia cell differentiation protein Mcl-1 (Q07820 whole entry): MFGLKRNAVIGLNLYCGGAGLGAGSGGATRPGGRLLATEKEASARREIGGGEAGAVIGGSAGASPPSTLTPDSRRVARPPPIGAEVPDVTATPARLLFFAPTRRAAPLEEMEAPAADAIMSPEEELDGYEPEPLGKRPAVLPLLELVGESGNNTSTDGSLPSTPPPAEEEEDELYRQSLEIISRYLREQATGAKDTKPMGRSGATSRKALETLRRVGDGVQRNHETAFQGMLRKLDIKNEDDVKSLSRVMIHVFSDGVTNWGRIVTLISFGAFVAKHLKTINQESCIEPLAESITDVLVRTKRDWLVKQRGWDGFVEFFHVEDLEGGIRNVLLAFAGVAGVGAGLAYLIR

[3] = viability loss in THP-1 monocytes – THP-1 cells, cytotoxicity control for Vif-APOBEC3G degradation inhibitor project, dose response (AID 1117359); settings: THP-1
[4] = tested on: Vero; test: viability of Vero cells under compound – cytotoxicity control for flavivirus capping enzyme inhibitors (AID 588742); settings: Chlorocebus sabaeus
[5] = molecular target: Genome polyprotein (dengue virus type 2, UniProt P29990); test: flavivirus cap methylation enzyme inhibition – biochemical, confirmation dose response, primary screen (AID 588689)
Chain of Genome polyprotein (P29990 2492-3391 limits assumed): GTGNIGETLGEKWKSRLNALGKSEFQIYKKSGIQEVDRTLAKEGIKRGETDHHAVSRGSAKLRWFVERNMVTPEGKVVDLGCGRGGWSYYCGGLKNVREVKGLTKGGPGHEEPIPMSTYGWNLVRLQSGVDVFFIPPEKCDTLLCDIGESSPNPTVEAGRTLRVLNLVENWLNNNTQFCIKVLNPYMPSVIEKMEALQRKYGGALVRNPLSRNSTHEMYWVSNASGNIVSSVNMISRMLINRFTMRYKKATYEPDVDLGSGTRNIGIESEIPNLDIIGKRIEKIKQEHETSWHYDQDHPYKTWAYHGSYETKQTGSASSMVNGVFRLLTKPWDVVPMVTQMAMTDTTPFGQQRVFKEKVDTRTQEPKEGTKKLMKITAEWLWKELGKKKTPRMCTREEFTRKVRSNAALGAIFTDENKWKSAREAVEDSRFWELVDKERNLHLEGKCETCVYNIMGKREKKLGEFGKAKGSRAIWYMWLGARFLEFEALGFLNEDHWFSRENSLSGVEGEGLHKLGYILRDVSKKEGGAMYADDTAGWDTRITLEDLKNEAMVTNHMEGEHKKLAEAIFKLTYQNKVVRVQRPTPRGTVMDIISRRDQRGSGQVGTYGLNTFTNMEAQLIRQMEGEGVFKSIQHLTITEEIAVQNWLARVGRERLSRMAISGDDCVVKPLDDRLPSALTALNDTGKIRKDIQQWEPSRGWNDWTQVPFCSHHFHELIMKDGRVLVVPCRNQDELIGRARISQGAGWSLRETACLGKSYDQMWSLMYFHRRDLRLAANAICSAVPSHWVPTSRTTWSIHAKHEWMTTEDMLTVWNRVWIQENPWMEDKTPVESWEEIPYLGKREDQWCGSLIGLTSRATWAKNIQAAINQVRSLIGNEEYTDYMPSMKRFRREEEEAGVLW

[6] = molecular target: T2, Caspase-3 (Homo sapiens, UniProt P42574); test: inhibition of recombinant caspase-3 activity – biochemical, luminescence, set 2, selectivity assay for SENP protease inhibitor project, SAR follow-up (AID 588599)
T2 sequence (P42574 whole entry): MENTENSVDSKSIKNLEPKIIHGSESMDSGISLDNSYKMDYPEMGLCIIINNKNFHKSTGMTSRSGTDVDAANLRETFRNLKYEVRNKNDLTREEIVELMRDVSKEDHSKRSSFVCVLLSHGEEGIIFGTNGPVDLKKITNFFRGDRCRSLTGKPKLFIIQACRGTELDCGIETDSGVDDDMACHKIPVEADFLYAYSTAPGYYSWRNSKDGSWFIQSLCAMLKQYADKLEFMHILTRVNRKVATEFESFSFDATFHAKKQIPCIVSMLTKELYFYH

[7] = molecular target: T3, Sentrin-specific protease 7 (Homo sapiens, UniProt Q9BQF6); test: inhibition of human SENP7 cleavage activity – biochemical, luminescence, set 2, SAR follow-up (AID 588600)
T3 sequence (Q9BQF6 whole entry): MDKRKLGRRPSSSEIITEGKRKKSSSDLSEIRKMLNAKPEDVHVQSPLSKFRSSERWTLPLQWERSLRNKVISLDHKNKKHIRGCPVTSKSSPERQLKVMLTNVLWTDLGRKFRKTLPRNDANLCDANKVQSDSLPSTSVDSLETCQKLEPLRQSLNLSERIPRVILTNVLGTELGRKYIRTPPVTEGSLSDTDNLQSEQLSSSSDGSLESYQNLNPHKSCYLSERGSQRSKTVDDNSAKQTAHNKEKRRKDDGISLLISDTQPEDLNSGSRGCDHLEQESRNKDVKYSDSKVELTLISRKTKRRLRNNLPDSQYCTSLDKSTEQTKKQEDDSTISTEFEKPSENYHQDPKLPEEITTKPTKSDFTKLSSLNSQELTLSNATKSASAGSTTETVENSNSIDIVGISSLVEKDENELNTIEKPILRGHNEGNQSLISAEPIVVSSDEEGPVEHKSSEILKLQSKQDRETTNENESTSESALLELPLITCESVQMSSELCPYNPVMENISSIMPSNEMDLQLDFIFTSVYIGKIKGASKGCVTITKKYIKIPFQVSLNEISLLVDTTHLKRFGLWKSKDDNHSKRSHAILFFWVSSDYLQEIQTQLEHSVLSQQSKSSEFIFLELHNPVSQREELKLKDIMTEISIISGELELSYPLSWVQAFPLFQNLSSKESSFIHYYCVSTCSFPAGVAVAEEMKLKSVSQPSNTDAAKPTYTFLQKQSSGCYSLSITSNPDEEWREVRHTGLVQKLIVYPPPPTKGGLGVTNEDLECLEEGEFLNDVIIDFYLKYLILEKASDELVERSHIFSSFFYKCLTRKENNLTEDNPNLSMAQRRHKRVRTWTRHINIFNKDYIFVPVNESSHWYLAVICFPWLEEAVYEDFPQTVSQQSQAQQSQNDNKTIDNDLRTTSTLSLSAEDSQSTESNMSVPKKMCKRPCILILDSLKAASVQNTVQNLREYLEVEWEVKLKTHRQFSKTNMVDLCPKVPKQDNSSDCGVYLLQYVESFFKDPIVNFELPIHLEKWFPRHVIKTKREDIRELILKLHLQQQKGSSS

[8] = molecular target: T4, Sentrin-specific protease 6 (Homo sapiens, UniProt Q9GZR1); test: inhibition of human SENP6 catalytic domain – biochemical, luminescence, set 2, SAR follow-up (AID 588598)
T4 sequence (Q9GZR1 whole entry): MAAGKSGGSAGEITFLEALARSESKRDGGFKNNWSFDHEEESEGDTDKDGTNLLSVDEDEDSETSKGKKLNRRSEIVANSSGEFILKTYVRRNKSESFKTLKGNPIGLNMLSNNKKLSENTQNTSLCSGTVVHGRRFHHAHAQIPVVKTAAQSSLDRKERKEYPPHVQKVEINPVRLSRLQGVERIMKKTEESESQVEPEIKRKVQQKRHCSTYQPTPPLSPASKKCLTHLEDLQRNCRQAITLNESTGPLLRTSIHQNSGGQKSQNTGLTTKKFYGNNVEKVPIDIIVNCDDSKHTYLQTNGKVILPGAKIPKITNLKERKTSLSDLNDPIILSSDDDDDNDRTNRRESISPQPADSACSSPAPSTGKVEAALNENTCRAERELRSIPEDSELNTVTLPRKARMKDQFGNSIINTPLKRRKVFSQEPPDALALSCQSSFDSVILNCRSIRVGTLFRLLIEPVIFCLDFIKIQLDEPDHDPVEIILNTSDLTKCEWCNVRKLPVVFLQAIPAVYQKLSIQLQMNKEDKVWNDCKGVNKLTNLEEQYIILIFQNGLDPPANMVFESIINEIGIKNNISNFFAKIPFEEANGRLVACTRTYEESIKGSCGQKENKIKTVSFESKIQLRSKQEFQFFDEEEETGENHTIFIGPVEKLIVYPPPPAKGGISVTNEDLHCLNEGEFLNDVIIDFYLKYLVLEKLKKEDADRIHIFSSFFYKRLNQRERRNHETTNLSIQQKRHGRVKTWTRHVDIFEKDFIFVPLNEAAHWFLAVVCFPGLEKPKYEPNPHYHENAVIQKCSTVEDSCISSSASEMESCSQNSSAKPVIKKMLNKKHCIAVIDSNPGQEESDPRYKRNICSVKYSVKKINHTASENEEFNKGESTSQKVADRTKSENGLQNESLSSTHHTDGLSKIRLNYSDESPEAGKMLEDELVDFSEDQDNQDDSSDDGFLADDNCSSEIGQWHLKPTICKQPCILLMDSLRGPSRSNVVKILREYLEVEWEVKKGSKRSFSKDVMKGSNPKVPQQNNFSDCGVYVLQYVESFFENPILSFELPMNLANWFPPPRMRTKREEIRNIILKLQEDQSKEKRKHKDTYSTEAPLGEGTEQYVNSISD

[9] = molecular target: T5, Sentrin-specific protease 8 (Homo sapiens, UniProt Q96LD8); test: inhibition of sentrin protease 8 – biochemical, luminescence, set 2, SAR follow-up (AID 588601)
T5 sequence (Q96LD8 whole entry): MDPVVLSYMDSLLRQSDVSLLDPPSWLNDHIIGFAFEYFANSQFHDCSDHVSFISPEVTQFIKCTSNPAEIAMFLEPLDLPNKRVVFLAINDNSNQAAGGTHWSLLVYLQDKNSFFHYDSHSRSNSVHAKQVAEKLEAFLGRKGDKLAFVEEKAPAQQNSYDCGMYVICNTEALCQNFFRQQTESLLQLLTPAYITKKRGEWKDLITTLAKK

[10] = molecular target: T6, Rac GTPase-activating protein 1 (Homo sapiens, UniProt Q9H0H5); test: blockers of MgcRacGAP-driven Rac1 GTP hydrolysis – biochemical, ADP Hunter fluorescence, primary and confirmatory, confirmation (AID 624330)
T6 sequence (Q9H0H5 whole entry): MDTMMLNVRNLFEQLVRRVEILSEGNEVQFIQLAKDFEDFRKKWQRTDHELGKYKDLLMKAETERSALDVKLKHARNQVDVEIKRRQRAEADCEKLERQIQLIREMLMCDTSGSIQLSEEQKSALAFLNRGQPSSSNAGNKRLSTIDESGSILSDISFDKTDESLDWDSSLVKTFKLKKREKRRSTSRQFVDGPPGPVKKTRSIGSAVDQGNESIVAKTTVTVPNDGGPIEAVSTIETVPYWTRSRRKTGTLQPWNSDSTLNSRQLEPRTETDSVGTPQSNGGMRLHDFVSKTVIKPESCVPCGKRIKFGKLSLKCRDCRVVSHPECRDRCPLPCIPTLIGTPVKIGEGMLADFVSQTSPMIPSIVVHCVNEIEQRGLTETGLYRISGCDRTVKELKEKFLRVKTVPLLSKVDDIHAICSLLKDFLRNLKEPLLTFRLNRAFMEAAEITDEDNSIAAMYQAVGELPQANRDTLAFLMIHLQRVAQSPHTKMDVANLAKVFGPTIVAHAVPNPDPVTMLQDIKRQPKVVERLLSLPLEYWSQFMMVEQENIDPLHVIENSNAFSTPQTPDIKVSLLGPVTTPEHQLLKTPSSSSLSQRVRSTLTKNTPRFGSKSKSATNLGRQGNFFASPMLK

Compound | IC50 [6] | IC50 [7] | IC50 [8] | IC50 [10] | IC50 [1] | IC50 [2] | CC50 [3] | CC50 [4] | IC50 [5] | IC50 [9]
COc1ccc2[nH]c3c4c(ccc3c2c1)C(=O)C=CC4=O |  |  |  |  | 19.1 µM (active) | 0.919 µM (active) | 3.94 µM (active) | 17.9 µM (active) | > 100 µM (active) | 
Cc1cc(O)ccc1/N=C/c1c(C(F)(F)F)n[nH]c1O |  |  |  | 30.2 µM (active) |  |  |  | > 40 µM (active) |  | 

Further lines, with some results ahead:

IC50 [6] | IC50 [7] | IC50 [8] | IC50 [10] | Compound | IC50 [1] | IC50 [2] | CC50 [3] | CC50 [4] | IC50 [5] | IC50 [9]
> 99 µM (inactive) | > 99 µM (inactive) | > 99 µM (inactive) |  | CCCC(=O)Nc1ccc(C(=O)N/N=C/c2c(C)[nH]c3ccccc23)cc1 |  |  |  |  |  | > 99 µM (inactive)
> 99 µM (inactive) | > 99 µM (inactive) | > 99 µM (inactive) |  | COCc1c(Br)c(C)nc(OCC(=O)N/N=C/c2c[nH]c3ccccc23)c1C#N |  |  |  |  |  | > 99 µM (inactive)
> 99 µM (inactive) | > 99 µM (inactive) | > 99 µM (inactive) |  | Cc1ccccc1NC(=O)CCC(=O)N/N=C/c1c[nH]c2ccccc12 |  |  |  |  |  | > 99 µM (inactive)
